Laboratory results published in patent US20240237641A1, “COMPOSITION COMPRISING GRAPHENE FOR THE TREATMENT OF TEXTILE ARTICLES AND TEXTILE ARTICLES TREATED” (DIRECTA PLUS S.P.A., priority 2021, published 2024).

Legend:
Sars-CoV-2 = assay: Test of inhibition of Sars-CoV-2 viral infection of Vero E6 cells; assay type: cell-based; settings: Severe acute respiratory syndrome coronavirus 2, Vero C1008, read-out: viable cells
Method: The substances were evaluated in the concentration ranges from […]. With the same concentration (0.015 mg/mL) maximum efficacy was obtained with Curcumin (94% viable cells), followed by Emodin (89% viable cells), α-Hederine (71% viable cells) and Thymoquinone (73% viable cells).

Vero E6 cells = settings: substances solubilized in DMSO, luminescence kit for quantification of viable cells
Source text: The substances were solubilized in dimethyl sulfoxide (DMSO) and renal epithelial cells (Vero E6 ATCC® CRL-1586™) were used for the test. The experimental procedure used was divided into 3 steps: • 1) Evaluation of cytotoxicity (amount of dead cells) of DMSO on Vero E6 cells compared to the negative control, i.e., compared to Vero E6 cells not treated with DMSO; • 2) Evaluation of cytotoxicity of the single substances dissolved in DMSO on Vero E6 cells compared to the negative control, i.e., compared to Vero E6 cells not treated with DMSO; • 3) Evaluation of inhibition of the infection of Vero E6 cells by Sars-Cov-2 (around 10^5 viral particles/mL) compared to the positive control, i.e., Vero E6 cells infected but not treated with any phytotherapeutic substance.
The substances were administered to Vero E6 cells at different concentrations gradually decreasing towards lower concentrations. Cytotoxicity was evaluated using a luminescence kit for the quantification of viable cells.

Row | SMILES | viability at 15 µg/mL (Sars-CoV-2) [%] | concentrations tolerated by the cells (Vero E6 cells) [ng/mL]
1 | COc1cc(/C=C/C(=O)/C=C(O)/C=C/c2ccc(O)c(OC)c2)ccc1O [curcumin] | 94 | 15000
2 | Cc1cc(O)c2c(c1)C(=O)c1cc(O)cc(O)c1C2=O [emodin] | 89 | 60000
3 | CC1=CC(=O)C(C(C)C)=CC1=O [thymoquinone] | 73 | 7500
4 | C[C@@H]1O[C@@H](O[C@H]2[C@H](O[C@H]3CC[C@@]4(C)[C@@H](CC[C@]5(C)[C@@H]4CC=C4[C@@H]6CC(C)(C)CC[C@]6(C(=O)O)CC[C@]45C)[C@]3(C)CO)OC[C@@H](O)[C@@H]2O)[C@H](O)[C@H](O)[C@H]1O [α-hederine] | 71 | 7500
